Reference: patent US20190328900A1, “ANTIBODY-DRUG CONJUGATES AND THERAPEUTIC METHODS USING THE SAME” (priority 2016, published 2019)

Columns and labels:
[1] = test system: pseudotyped virus (NL4-3 provirus with various HIV gp160 envelope clones); assay: Pseudotyped virus assay (PSV), luciferase reporter, U373 cells expressing human CD4 and CXCR4 or CCR5; format: cell-based
Text: A pseudotyped virus assay (PSV) was used to assess the potency of various HIV entry inhibitors. Replication defective virus was produced by co-transfection of a plasmid containing an NL4-3 provirus [containing a mutation in the envelope open reading frame (ORF) and a luciferase reporter gene replacing the nef ORF] and a CMV-promoter expression plasmid containing an ORF for various HIV gp160 envelope clones. The harvested virus was stored at −80C in small aliquots and the titer of the virus measured to produce a robust signal for antiviral assays.
The PSV assay was performed by using U373 cells stably transformed to express human CD4, the primary receptor for HIV entry and either human CXCR4 or human CCR5 which are the co-receptors required for HIV entry as target cells for infection. Molecules of interest (including, but not limited to small molecule inhibitors of HIV, neutralizing antibodies of HIV, antibody-drug conjugate inhibitors of HIV, peptide inhibitors of HIV, and various controls) were diluted into tissue culture media and diluted via serial dilution to create a dose range of concentrations. This dose-range was applied to U373 cells and the pre-made pseudotyped virus added. The amount of luciferase signal produced after 3 days of culture was used to reflect the level of pseudotyped virus infection.

HIV strains/subtypes = details: cited from earlier work

For `O=C1Nc2ccc(Cl)cc2[C@@](C#CC2CC2)(C(F)(F)F)O1` [EFV, Efavirenz], the IC50 ([1]; Human immunodeficiency virus 1, NL43, Table 14, first IC50 column (no further heading)) was 1.9 nM, the IC50 ([1]; Human immunodeficiency virus 1, NL43, Table 14, second IC50 column (no further heading)) was 1.53 nM and the IC50 ([1]; Human immunodeficiency virus 1, NL43, Table 14, third IC50 column (no further heading)) was 1.6 nM.
For “VRC01: broadly neutralizing anti-HIV antibody (IgG1) binding gp120, expressed in CHO cells; SEQ ID NO:9-13”, the HIV strains/subtypes neutralized (HIV strains/subtypes) is listed as 90%.
